Laboratory results: patent US10106627B2, “Process for the preparation of polymeric biosurfactants” (priority 2014, dated 2018)

Columns and labels:
[1] = tested on: Bacillus subtilis MTCC 121; experiment: Microtiter broth dilution MIC; type: cell-based; conditions: Bacillus subtilis MTCC 121, 24 h, 35° C.
Protocol: (§1) The antimicrobial activity of Microsan and M-EPS-Au-NP was determined using the microtiter broth dilution method [Kumar, C. G. and Mamidyala, S. K. (2011) Coll. Surf B: Biointerf. 84, 462-466]. Different bacterial pathogens (10^7 cfu ml^−1 cells) were inoculated in 100 μl of Muller-Hinton broth. Different concentrations of Microsan, M-EPS-Au-NP and Brevisan were added to each strain and incubated for 24 h at 35° C. After incubation, 40 μl of p-iodonitrotetrazolium (INT, Sigma) dye (0.02%, 20 mg INT dissolved in 100 ml of 40% dimethyl formamide was added to each well and incubated for 2 h. The reduction of p-iodonitrotetrazolium was spectroscopically measured at 450 nm using TRIAD multimode reader (Dynex Technologies, Inc., Chantilly, Va.) to determine the minimum inhibitory concentration (MIC) values. Commercially available surfactin (CAS 24730-31-2; Sigma-Aldrich) and laminarin (CAS No 9008-22-4; Sigma-Aldrich) used as positive controls were run in parallel for comparison. The MIC values of Microsan and M-EPS-Au-NP observed against the tested bacterial strains are shown in Table 3.

[2] = tested on: Escherichia coli MTCC 739; experiment: Microtiter broth dilution MIC; type: cell-based; conditions: Escherichia coli MTCC 739, 24 h, 35° C.
Protocol: as §1

[3] = tested on: Klebsiella planticola MTCC 530; experiment: Microtiter broth dilution MIC; type: cell-based; conditions: Klebsiella planticola MTCC 530, 24 h, 35° C.
Protocol: as §1

[4] = tested on: Micrococcus luteus MTCC 2470; experiment: Microtiter broth dilution MIC; type: cell-based; conditions: Micrococcus luteus MTCC 2470, 24 h, 35° C.
Protocol: as §1

[5] = tested on: Pseudomonas aeruginosa MTCC 2453; experiment: Microtiter broth dilution MIC; type: cell-based; conditions: Pseudomonas aeruginosa MTCC 2453, 24 h, 35° C.
Protocol: as §1

[6] = tested on: Staphylococcus aureus MLS16 MTCC 2940; experiment: Microtiter broth dilution MIC; type: cell-based; conditions: Staphylococcus aureus MLS16 MTCC 2940, 24 h, 35° C.
Protocol: as §1

[7] = tested on: Staphylococcus aureus MTCC 96; experiment: Microtiter broth dilution MIC; type: cell-based; conditions: Staphylococcus aureus MTCC 96, 24 h, 35° C.
Protocol: as §1

[8] = tested on: cyclooxygenase-2 (COX-2) in RAW 264.7 cells; experiment: LPS-induced COX-2 immunoblot in RAW 264.7 cells; type: cell-based, mouse; conditions: 10 and 50 μg ml^−1, 24 h, LPS 100 ng ml^−1
Protocol: In independent experiments, RAW-264.7 cells were treated with Brevisan, Microsan and M-EPS-Au-NP (10 and 50 μg ml^−1 each) and then stimulated with 100 ng ml^−1 of LPS. After 24 h, the cells were washed with PBS and suspended in a lysis buffer containing 20 mM Tris, I mM EDTA, 150 mM NaCl, 1% NP-40, 0.5% sodium deoxycholate, 1 mM β-glycerophosphate, 1 mM sodium orthovanadate, 1 mM PMSF, 10 mg ml^−1 leupeptin, 20 mg ml^−1 aprotinin. The mixture was centrifuged at 10,000 rpm at 4° C. for 10 min to obtain the cell lysate. The protein content was determined by Bradford method [Bradford, M. M. (1976) Anal. Biochem. 72, 248-258]. An equal amount of total cell lysate was resolved on 12% SDS-PAGE gels and then transferred onto nitrocellulose membranes. Membranes were blocked with 5% w/v non-fat dry milk and then incubated with the primary antibodies for mouse COX-2 and β-actin with gentle shaking at 4° C. for 12 h and then incubated with peroxidase-conjugated secondary antibodies. The blots were developed using peroxidase substrates, TMB (3,3,5,5-tetramethylbenzidine)/H2O2.

TNF-α in RAW 264.7 cells = experiment: LPS-induced TNF-α ELISA in RAW 264.7 cells; type: cell-based, mouse; conditions: 50 μg ml^−1; LPS 100 ng ml^−1 24 h; LPS alone 215.79
Protocol: The effect of Brevisan, Microsan and M-EPS-Au-NP on the release of proinflammatory cytokines, TNF-α and IL-6, was measured using ELISA kits (Biosource International, Camarillo, Calif., USA). In independent experiments, the RAW-264.7 cells were treated with different concentrations (1, 10, 50 and 100 μg ml^−1) of Brevisan, Microsan and M-EPS-Au-NP and then stimulated with 100 ng ml^−1 of LPS. The supernatants were harvested after 24 h and the concentrations of TNF-α and IL-6 was measured using an ELISA kit according to the manufacturer's instructions.

[9] = Surface tension, Wilhelmy plate method; type: physicochemical; conditions: from 72
Protocol: The bacterial strains producing biosurfactants were isolated from the petroleum-contaminated soil sample collected from Mupkal, Nizamabad, Andhra Pradesh, India (latitude 18.90° N and longitude 78.36° E). The soil sample was enriched by placing 1.0 g of soil sample in 100 ml of mineral salts medium supplemented with N-hexadecane (1%, v/v) as a sole carbon source for three weeks. The enriched sample was serially diluted and then plated on the mineral salts agar plates overlaid with N-hexadecane which acted as a sole carbon source. The colonies that appeared on the plates upon incubation at 37° C. for 72 h were purified for 2-3 times on nutrient agar plates. The isolated pure microorganisms were cultured in liquid mineral salts medium at 37° C. for 72 h. The cells were separated by centrifugation and the cell-free supernatant was measured for the reduction in surface tension values by Wilhelmy plate method using a Du-Nouy K100MK2 Processor Tensiometer (Krüss, Hamburg, Germany). The concentration series was generated automatically with a computer-controlled Dosimat (Metrohm AG, Switzerland). […] The critical micelle concentration (CMC) was measured by plotting the concentration of surfactant as a function of surface tension, and the CMC was taken as the point where the slope of the curve abruptly changed. […]

[10] = Emulsification index (EI24); type: physicochemical; conditions: 24 h
Protocol: The surface tension of the purified Microsan from Microbacterium sp. strain BS-2 and Brevisan from Brevibacillus sp. strain BS-207 was measured by Wilhelmy plate method using a Du-Nouy K100MK2 Processor Tensiometer (Krüss, Hamburg, Germany) which reduced the surface tension of water from 72 to 31.2 mN m^−1. The interfacial tension value was measured by Du-Nouy ring method and it was determined as 25.7 mN m. The critical micelle concentration (CMC) was measured by plotting the concentration of EPS as a function of surface tension. The CMC is the point where the slope of the curve abruptly changed was determined as 75 mg l^−1. The emulsification index (EI24) was determined by the addition of 4 ml of culture supernatant to 6 ml of various hydrocarbons (N-Hexadecane, tridecane, hexane, toluene and xylene) and oils (mineral oil and soybean oil) and the mixtures were vortexed for 2 min and allowed to stand for 24 h. The emulsification index (EI24) values expressed as the percentage of height of emulsified layer to the height of total liquid column.

**Q.** What does the source list for “β-D-glucuronyl-(1-2)-D-mannosyl-(1-4)-D-glucose [Microsan]”?
**A.** Minimum inhibitory concentration (MIC) [1]: 4.68 µg/mL; Minimum inhibitory concentration (MIC) [2]: >300 µg/mL; Minimum inhibitory concentration (MIC) [3]: 9.37 µg/mL; Minimum inhibitory concentration (MIC) [4]: >300 µg/mL; Minimum inhibitory concentration (MIC) [5]: >300 µg/mL; Minimum inhibitory concentration (MIC) [6]: 4.68 µg/mL; Minimum inhibitory concentration (MIC) [7]: 18.75 µg/mL; induction of COX-2 (Western blot) [8]: significantly inhibited; TNF-α production after treatment (TNF-α in RAW 264.7 cells): 98.88 µg/mL; surface tension of water reduced to [9]: 31.2 mN m^−1; emulsification index (EI24) ([10]; N-hexadecane): 67%; emulsification index (EI24) ([10]; hexane): 83.7%; emulsification index (EI24) ([10]; mineral oil): 71.9%; emulsification index (EI24) ([10]; soybean oil): 63%; emulsification index (EI24) ([10]; toluene): 74.9%; emulsification index (EI24) ([10]; tridecane): 77%; emulsification index (EI24) ([10]; xylene): 66.89%
